Test results from DBAASP.
In brackets after ≈: the same amount, converted by molar mass. Several values for one entry are separate records, joined by “and”; a condition that tells them apart may be missing. Identical values can stand only once.

Tests used:
Experiment in all cases: ≥ marks a high value that may be exact or a test limit, other limits are often not marked, values filed in µg/mL are converted to µM
[1] = system: Staphylococcus aureus ATCC 29213
[2] = system: Escherichia coli ATCC 25922
Escherichia coli = system: Escherichia coli
[3] = system: Enterococcus faecalis ATCC 29212
[4] = system: Pseudomonas aeruginosa ATCC 27853
[5] = system: Staphylococcus epidermidis ATCC 12228
Bacillus subtilis = system: Bacillus subtilis
Staphylococcus aureus = system: Staphylococcus aureus
Pseudomonas aeruginosa = system: Pseudomonas aeruginosa
[6] = system: Candida albicans ATCC 90028
[7] = system: Salmonella enterica subsp. enterica serovar Typhimurium ATCC 14028
[8] = system: Pseudomonas aeruginosa PAO1

CC(C)C[C@H](NC(=O)[C@H](CCCCN)NC(=O)[C@@H]1CSSC[C@H](N)C(=O)N[C@@H](CCCCN)C(=O)N[C@@H](CCCCN)C(=O)N[C@@H](CC(C)C)C(=O)N[C@@H](CC(C)C)C(=O)N[C@@H](CCCCN)C(=O)N[C@@H](CC(C)C)C(=O)N[C@@H](CC(C)C)C(=O)N[C@@H](CCCCN)C(=O)N[C@@H](CCCCN)C(=O)N[C@@H](CC(C)C)C(=O)N1)C(=O)N[C@@H](C)C(=O)NCC(=O)O [CKKLLKLLKKLCKLAG] was tested, and the MIC [1] was greater than 40 µM, the MIC [2] was 5 µM (≈ 8.99 µg/mL) and the MIC (Escherichia coli) was 20 µM (≈ 36 µg/mL).

In the case of CSCC[C@H](NC(=O)[C@H](CCCN=C(N)N)NC(=O)[C@H](Cc1c[nH]c2ccccc12)NC(=O)[C@H](CCC(N)=O)NC(=O)[C@H](Cc1c[nH]c2ccccc12)NC(=O)[C@H](CC(C)C)NC(=O)[C@H](CC(C)C)NC(=O)[C@H](C)NC(=O)[C@H](CCCCN)NC(=O)[C@@H](N)Cc1ccccc1)C(=O)O [FKALLWQWRM], the MIC [2] is reported as 145 µM (≈ 200 µg/mL) and the MIC [3] is reported as 145 µM (≈ 200 µg/mL).

Work on CSCC[C@H](NC(=O)[C@H](CCCN=C(N)N)NC(=O)[C@H](Cc1c[nH]c2ccccc12)NC(=O)[C@H](CCC(N)=O)NC(=O)[C@H](Cc1c[nH]c2ccccc12)NC(=O)[C@H](CC(C)C)NC(=O)[C@H](CCCN=C(N)N)NC(=O)[C@H](C)NC(=O)[C@H](CCCCN)NC(=O)[C@@H](N)Cc1ccccc1)C(=O)O [FKARLWQWRM] yielded an MIC [2] of 70.4 µM (≈ 100 µg/mL) and an MIC [3] of 141 µM (≈ 200 µg/mL).

CC[C@H](C)[C@H](NC(=O)CN)C(=O)NCC(=O)N[C@@H](CCCCN)C(=O)N[C@@H](Cc1ccccc1)C(=O)N[C@@H](CC(C)C)C(=O)N[C@@H](Cc1cnc[nH]1)C(=O)N[C@@H](CCCCN)C(=O)N[C@H](C(=O)NCC(=O)N[C@@H](CO)C(=O)N[C@@H](Cc1ccccc1)C(=O)N[C@H](C(=O)N[C@@H](CCCCN)C(=O)N[C@@H](CO)C(=O)N[C@@H](Cc1c[nH]c2ccccc12)C(=O)N[C@@H](CCCCN)C(=O)NCC(=O)N[C@@H](CCC(=O)O)C(=O)N[C@H](C(=O)N[C@@H](CCSC)C(=O)N[C@@H](CC(N)=O)C(=O)N[C@@H](CO)C(N)=O)[C@@H](C)CC)[C@@H](C)CC)C(C)C [GIGKFLHKVGSFIKSWKGEIMNS] gave an MIC [1] of 73 µM (≈ 187 µg/mL), an MIC [2] of 5 µM (≈ 12.8 µg/mL) and an MIC [4] of 51.3 µM (≈ 131 µg/mL).

CC[C@H](C)[C@H](NC(=O)CN)C(=O)N[C@@H](CCCCN)C(=O)N[C@@H](CCCCN)C(=O)N[C@@H](Cc1c[nH]c2ccccc12)C(=O)N[C@@H](CC(C)C)C(=O)N[C@@H](Cc1cnc[nH]1)C(=O)N[C@@H](CO)C(=O)N[C@@H](C)C(=O)N[C@@H](CCCCN)C(=O)N[C@@H](CCCCN)C(=O)N1CCC[C@H]1C(=O)N1CCC[C@H]1C(=O)N[C@@H](CCCCN)C(=O)N[C@@H](CCCCN)C(=O)N[C@@H](Cc1ccccc1)C(=O)N[C@H](C(=O)N[C@@H](CCCCN)C(=O)N[C@@H](CCCCN)C(=O)N[C@H](C(=O)N[C@@H](CCSC)C(=O)N[C@@H](CC(N)=O)C(=O)N[C@@H](CO)C(N)=O)[C@@H](C)CC)C(C)C [GIKKWLHSAKKPPKKFVKKIMNS] gave an MIC [2] greater than 80 µM and an MIC [5] of 10 µM (≈ 26.9 µg/mL).

Molecule CC[C@H](C)[C@H](N)C(=O)N[C@@H](CC(=O)O)C(=O)N[C@@H](Cc1c[nH]c2ccccc12)C(=O)N[C@@H](CCCCN)C(=O)N[C@@H](CCCCN)C(=O)N[C@H](C(=O)N[C@@H](Cc1ccccc1)C(=O)N[C@@H](CCC(=O)O)C(=O)N[C@@H](CCCCN)C(=O)N[C@H](C(=O)N[C@@H](CCCCN)C(=O)N[C@@H](CC(N)=O)C(=O)N[C@@H](CC(C)C)C(=O)N[C@H](C(N)=O)C(C)C)C(C)C)[C@@H](C)CC [IDWKKIFEKVKNLV] has an MIC (Escherichia coli) of 13 µM (≈ 22.9 µg/mL) and an MIC (Bacillus subtilis) of 8.5 µM (≈ 15 µg/mL).

For CC[C@H](C)[C@H](N)C(=O)N[C@H](C(=O)N[C@@H](CO)C(=O)N[C@H](C(=O)N[C@H](C(=O)NCC(=O)N[C@@H](CCCCN)C(=O)N[C@@H](CC(C)C)C(=O)N1CCC[C@H]1C(=O)N[C@@H](CCCCN)C(=O)N[C@@H](Cc1c[nH]c2ccccc12)C(=O)N[C@H](C(=O)N[C@H](C(=O)N[C@@H](CCCCN)C(=O)N[C@H](C(=O)N[C@H](C(=O)N[C@@H](CC(N)=O)C(=O)N[C@@H](CCCCN)C(=O)N[C@@H](Cc1ccccc1)C(=O)N[C@H](C(=O)N[C@@H](CCCCN)C(=O)N[C@@H](CCCCN)C(=O)O)[C@@H](C)O)C(C)C)[C@@H](C)O)[C@@H](C)CC)[C@@H](C)CC)[C@@H](C)CC)[C@@H](C)O)[C@@H](C)CC [IISTIGKLPKWIIKTVNKFTKK], the MIC (Staphylococcus aureus) was 22 µM (≈ 56.3 µg/mL) and the MIC (Escherichia coli) was 2.7 µM (≈ 6.9 µg/mL).

Work on CC(C)C[C@H](NC(=O)[C@H](C)NC(=O)[C@@H](N)CCCCN)C(=O)N[C@@H](C)C(=O)N[C@@H](C)C(=O)N[C@@H](CC(C)C)C(=O)N[C@@H](CC(C)C)C(=O)N[C@@H](CCCCN)C(=O)N[C@@H](CCCCN)C(=O)N[C@@H](Cc1c[nH]c2ccccc12)C(=O)N[C@@H](C)C(=O)N[C@@H](CCCCN)C(=O)N[C@@H](CC(C)C)C(=O)N[C@@H](CC(C)C)C(=O)N[C@@H](C)C(=O)N[C@@H](C)C(=O)N[C@@H](CC(C)C)C(=O)N[C@@H](CCCCN)C(N)=O [KALAALLKKWAKLLAALK] yielded an MIC (Staphylococcus aureus) of 3 µM (≈ 5.85 µg/mL), an MIC (Escherichia coli) of 4.1 µM (≈ 8 µg/mL) and an MIC (Pseudomonas aeruginosa) of 5.8 µM (≈ 11.3 µg/mL).

In the case of CC(C)C[C@H](NC(=O)[C@H](C)NC(=O)[C@H](CCCCN)NC(=O)[C@H](CC(C)C)NC(=O)[C@H](CC(C)C)NC(=O)[C@H](Cc1c[nH]c2ccccc12)NC(=O)[C@H](CCCCN)NC(=O)[C@H](CC(C)C)NC(=O)[C@H](C)NC(=O)[C@H](C)NC(=O)[C@H](CCCCN)NC(=O)[C@H](C)NC(=O)[C@H](CC(C)C)NC(=O)[C@H](CC(C)C)NC(=O)[C@@H](N)CCCCN)C(=O)N[C@@H](CCCCN)C(=O)N[C@@H](C)C(=O)N[C@@H](C)C(N)=O [KLLAKAALKWLLKALKAA], the MIC (Staphylococcus aureus) is reported as 1.6 µM (≈ 3.12 µg/mL), the MIC (Escherichia coli) is reported as 6.2 µM (≈ 12.1 µg/mL) and the MIC (Pseudomonas aeruginosa) is reported as 12.4 µM (≈ 24.2 µg/mL).

With CC[C@H](C)[C@H](NC(=O)[C@H](CCCN=C(N)N)NC(=O)[C@H](C)NC(=O)[C@@H](NC(=O)[C@@H](NC(=O)[C@H](CCCN=C(N)N)NC(=O)[C@@H](N)CCCCN)[C@@H](C)CC)C(C)C)C(=O)N[C@@H](CCCCN)C(=O)N[C@@H](CC(=O)O)C(=O)N[C@@H](Cc1ccccc1)C(=O)N[C@@H](CC(C)C)C(=O)N[C@@H](CCCN=C(N)N)C(=O)O [KRIVARIKDFLR] the MIC [1] was 20 µM (≈ 30.3 µg/mL), the MIC [2] was 5 µM (≈ 7.57 µg/mL) and the MIC [4] was 5 µM (≈ 7.57 µg/mL). The MIC [6] was 20 µM (≈ 30.3 µg/mL).

CC[C@H](C)[C@H](NC(=O)[C@H](Cc1ccccc1)NC(=O)[C@H](CO)NC(=O)[C@H](CCCCN)NC(=O)[C@H](Cc1c[nH]c2ccccc12)NC(=O)[C@@H](N)CCCCN)C(=O)N[C@@H](CCCCN)C(=O)N[C@@H](CCCCN)C(=O)N[C@@H](CC(C)C)C(=O)N[C@@H](CC(C)C)C(=O)N[C@@H](CO)C(=O)N[C@@H](CCCCN)C(=O)N[C@@H](Cc1ccccc1)C(=O)N[C@@H](CC(C)C)C(=O)N[C@@H](Cc1cnc[nH]1)C(=O)N[C@@H](CO)C(=O)N[C@@H](C)C(=O)N[C@@H](CCCCN)C(=O)N[C@@H](CCCCN)C(=O)N[C@@H](Cc1ccccc1)C(N)=O [KWKSFIKKLLSKFLHSAKKF] gave an MIC (Pseudomonas aeruginosa) of 5.07 µM (≈ 12.5 µg/mL).

Molecule CC[C@H](C)[C@H](NC(=O)[C@H](Cc1ccccc1)NC(=O)[C@H](CO)NC(=O)[C@H](CCCCN)NC(=O)[C@H](Cc1c[nH]c2ccccc12)NC(=O)[C@@H](N)CCCCN)C(=O)N[C@@H](CCCCN)C(=O)N[C@@H](CCCCN)C(=O)N[C@@H](CC(C)C)C(=O)N[C@H](C(=O)N[C@@H](CO)C(=O)N[C@@H](CCCCN)C(=O)N[C@@H](Cc1ccccc1)C(=O)N[C@@H](CC(C)C)C(=O)N[C@@H](Cc1cnc[nH]1)C(=O)N[C@@H](CC(C)C)C(=O)N[C@@H](C)C(=O)N[C@@H](CCCCN)C(=O)N[C@@H](CCCCN)C(=O)N[C@@H](Cc1ccccc1)C(N)=O)[C@@H](C)O [KWKSFIKKLTSKFLHLAKKF] has an MIC (Pseudomonas aeruginosa) of 5.04 µM (≈ 12.5 µg/mL).

CC[C@H](C)[C@H](NC(=O)[C@H](CCCN=C(N)N)NC(=O)[C@H](C)NC(=O)[C@H](CC(N)=O)NC(=O)[C@H](CCCCN)NC(=O)[C@@H](N)CC(C)C)C(=O)N[C@H](C(=O)NCC(=O)N[C@@H](CCC(=O)O)C(=O)N[C@@H](CC(C)C)C(=O)N[C@H](C(=O)NCC(=O)N[C@@H](Cc1ccccc1)C(=O)N[C@@H](CCCN=C(N)N)C(=O)N1CCC[C@H]1C(=O)N[C@H](C(=O)N[C@@H](CCCN=C(N)N)C(=O)N1CCC[C@H]1C(=O)N[C@@H](CCC(N)=O)C(=O)N[C@H](C(=O)N[C@@H](CCCN=C(N)N)C(=O)N[C@@H](CC(C)C)C(=O)N[C@@H](CCC(=O)O)C(=O)O)C(C)C)C(C)C)[C@@H](C)O)C(C)C [LKNARIVGELTGFRPVRPQVRLE] gave an MIC [2] of 12.5 µM (≈ 33.1 µg/mL), an MIC [7] of 25 µM (≈ 66.2 µg/mL) and an MIC [3] of 12.5 µM (≈ 33.1 µg/mL).

CC(C)C[C@H](NC(=O)[C@H](CCCN=C(N)N)NC(=O)[C@@H](N)CCCN=C(N)N)C(=O)N[C@@H](CCCN=C(N)N)C(=O)N1CCC[C@H]1C(=O)N[C@@H](CCCN=C(N)N)C(=O)N[C@@H](CCCN=C(N)N)C(=O)N1CCC[C@H]1C(=O)N[C@@H](CCCN=C(N)N)C(=O)N[C@@H](CC(C)C)C(=O)N1CCC[C@H]1C(=O)N[C@@H](CCCN=C(N)N)C(=O)N1CCC[C@H]1C(=O)N[C@@H](CCCN=C(N)N)C(=O)N1CCC[C@H]1C(=O)N[C@@H](CCCN=C(N)N)C(=O)O [RRLRPRRPRLPRPRPR] was tested, and the MIC [1] was greater than 32 µM, the MIC [8] was 16 µM and 32 µM and the MIC [3] was greater than 32 µM.

Molecule NC(=O)[C@H](Cc1ccccc1)NC(=O)[C@H](Cc1ccccc1)NC(=O)[C@H](Cc1ccccc1)NC(=O)[C@@H]1CCCN1C(=O)[C@H](CCCN=C(N)N)NC(=O)[C@@H]1CCCN1C(=O)[C@H](CCCN=C(N)N)NC(=O)[C@@H]1CCCN1C(=O)[C@H](CCCN=C(N)N)NC(=O)[C@@H]1CCCN1C(=O)[C@H](CCCN=C(N)N)NC(=O)[C@@H](N)CCCN=C(N)N [RRPRPRPRPFFF] has an MIC [1] of 40 µM (≈ 65.1 µg/mL), an MIC [2] of 80 µM (≈ 130 µg/mL) and an MIC [4] greater than 160 µM.
